Assay results from ChEMBL document CHEMBL4130465, “Berchemiosides A-C, 2-Acetoxy-ω-phenylpentaene Fatty Acid Triglycosides from the Unripe Fruits of Berchemia berchemiifolia” (J Nat Prod, 2017).
Activity calls are given as the source filed them. The calls are words filed in the database; no cut-off is given here.

Tests used:
HCT-116 [1] = assay: Cytotoxicity against human HCT116 cells up to 100 uM after 48 hrs by MTT assay; type: functional, cell-based
[2] = molecular target: Xanthine dehydrogenase/oxidase (Homo sapiens, UniProt P47989); assay: Inhibition of xanthine oxidase (unknown origin) using xanthine as substrate pretreated for 10 mins followed by substrate addition measured every 2 mins for 6 mins; conditions: for inhibition (INH): human, 0.1 h
Xanthine dehydrogenase/oxidase, sequence (P47989 whole entry): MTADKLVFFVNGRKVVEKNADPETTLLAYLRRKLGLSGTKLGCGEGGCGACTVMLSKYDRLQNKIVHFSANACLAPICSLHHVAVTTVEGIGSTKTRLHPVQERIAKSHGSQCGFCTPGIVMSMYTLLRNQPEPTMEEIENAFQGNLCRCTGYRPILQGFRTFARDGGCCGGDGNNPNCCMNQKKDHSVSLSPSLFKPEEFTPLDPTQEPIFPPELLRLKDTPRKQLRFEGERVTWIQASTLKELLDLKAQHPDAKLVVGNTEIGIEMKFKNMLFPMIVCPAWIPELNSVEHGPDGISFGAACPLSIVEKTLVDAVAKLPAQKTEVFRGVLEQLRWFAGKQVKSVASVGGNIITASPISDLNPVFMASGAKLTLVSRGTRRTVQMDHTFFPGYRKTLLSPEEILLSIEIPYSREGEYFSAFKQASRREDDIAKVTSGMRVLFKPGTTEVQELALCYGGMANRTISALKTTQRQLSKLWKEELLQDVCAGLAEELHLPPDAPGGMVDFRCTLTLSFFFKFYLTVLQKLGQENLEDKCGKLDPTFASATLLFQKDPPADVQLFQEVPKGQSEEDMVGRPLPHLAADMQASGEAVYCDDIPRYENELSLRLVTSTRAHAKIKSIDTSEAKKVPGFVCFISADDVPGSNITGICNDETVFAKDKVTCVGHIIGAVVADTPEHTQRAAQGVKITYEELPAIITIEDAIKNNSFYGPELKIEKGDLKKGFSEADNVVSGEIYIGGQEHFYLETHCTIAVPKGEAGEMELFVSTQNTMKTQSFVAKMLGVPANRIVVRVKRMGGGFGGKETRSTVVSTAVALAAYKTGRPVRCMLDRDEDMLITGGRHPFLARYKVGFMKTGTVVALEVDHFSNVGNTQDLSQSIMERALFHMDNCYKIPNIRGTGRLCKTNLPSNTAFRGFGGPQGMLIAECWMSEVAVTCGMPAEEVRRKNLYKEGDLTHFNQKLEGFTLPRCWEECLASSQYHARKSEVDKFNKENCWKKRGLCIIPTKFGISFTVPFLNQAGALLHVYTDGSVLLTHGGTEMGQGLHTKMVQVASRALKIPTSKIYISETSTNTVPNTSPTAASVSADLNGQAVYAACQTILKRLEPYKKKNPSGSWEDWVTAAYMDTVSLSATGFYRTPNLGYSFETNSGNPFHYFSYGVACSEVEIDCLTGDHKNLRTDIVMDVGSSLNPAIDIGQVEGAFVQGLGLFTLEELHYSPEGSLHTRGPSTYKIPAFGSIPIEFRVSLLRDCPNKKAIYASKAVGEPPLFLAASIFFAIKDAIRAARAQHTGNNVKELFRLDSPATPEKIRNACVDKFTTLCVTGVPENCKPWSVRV

HCT-116 [3] = assay: Cytotoxicity against human HCT116 cells after 48 hrs by MTT assay; type: functional, cell-based; conditions: HCT-116, 48 h

Compound	Activity (HCT-116 [1])	inhibition (INH) [2]	other results
CC(=O)O[C@H](CCC/C=C/C=C/C=C\C=C/C=C/c1ccc(O[C@@H]2O[C@H](CO[C@@H]3O[C@@H](C)[C@H](O)[C@@H](O[C@@H]4O[C@H](CO)[C@@H](O)[C@H](O)[C@H]4O)[C@H]3O)[C@@H](O)[C@H](O)[C@H]2O)cc1)C(=O)O	inactive	–	–
O=C1C[C@H](c2ccc(O)c(O)c2)Oc2cc(O)cc(O[C@@H]3O[C@H](CO)[C@@H](O)[C@H](O)[C@H]3O[C@@H]3O[C@H](CO)[C@@H](O)[C@H](O)[C@H]3O)c21	–	Not Active	–
CC(=O)O[C@@]12CO[C@@H]1C[C@H](O)[C@@]1(C)C(=O)[C@H](O)C3=C(C)[C@@H](OC(=O)[C@H](O)[C@@H](NC(=O)OC(C)(C)C)c4ccccc4)C[C@@](O)([C@@H](OC(=O)c4ccccc4)[C@H]21)C3(C)C [DOCETAXEL ANHYDROUS]	–	–	IC50 (HCT-116 [3]): 0.13 µM
O=C1C[C@H](c2ccc(O)cc2)Oc2cc(O)cc(O[C@@H]3O[C@H](CO)[C@@H](O)[C@H](O)[C@H]3O[C@@H]3O[C@H](CO)[C@@H](O)[C@H](O)[C@H]3O)c21	–	–	IC50 [2]: 95.4 µM
COc1cc2oc(-c3ccc(O)c(O)c3)cc(=O)c2c(O)c1[C@@H]1O[C@H](CO)[C@@H](O)[C@H](O)[C@H]1O	–	Not Active	–
C[C@@H]1O[C@@H](OC[C@H]2O[C@@H](Oc3ccc(C=O)cc3)[C@H](O)[C@@H](O)[C@@H]2O)[C@H](O)[C@H](O[C@@H]2O[C@H](COC(=O)/C=C/c3ccccc3)[C@@H](O)[C@H](O)[C@H]2O)[C@H]1O	inactive	–	–
CC(=O)O[C@H](CCC/C=C/C=C/C=C/C=C/C=C/c1ccc(O[C@@H]2O[C@H](CO[C@@H]3O[C@@H](C)[C@H](O)[C@@H](O[C@@H]4O[C@H](COC(=O)/C=C/c5ccccc5)[C@@H](O)[C@H](O)[C@H]4O)[C@H]3O)[C@@H](O)[C@H](O)[C@H]2O)cc1)C(=O)O	inactive	–	–
CC(=O)O[C@H](CCC/C=C/C=C/C=C/C=C/C=C/c1ccc(O[C@@H]2O[C@H](CO[C@@H]3O[C@@H](C)[C@H](O)[C@@H](O[C@@H]4O[C@H](COC(=O)/C=C/C=C/c5ccccc5)[C@@H](O)[C@H](O)[C@H]4O)[C@H]3O)[C@@H](O)[C@H](O)[C@H]2O)cc1)C(=O)O	inactive	–	–
O=c1c(O[C@@H]2O[C@H](CO)[C@@H](O)[C@H](O)[C@H]2O[C@@H]2O[C@H](CO)[C@@H](O)[C@H](O)[C@H]2O)c(-c2ccc(O)c(O)c2)oc2cc(O)cc(O)c12	–	Not Active	–
O=C1C[C@@H](c2ccc(O)c(O)c2)Oc2cc(O)cc(O[C@@H]3O[C@H](CO)[C@@H](O)[C@H](O)[C@H]3O[C@@H]3O[C@H](CO)[C@@H](O)[C@H](O)[C@H]3O)c21	–	Not Active	–
COc1cc2oc(-c3ccc(O)cc3)cc(=O)c2c(O)c1[C@@H]1O[C@H](CO)[C@@H](O)[C@H](O)[C@H]1O [SWERTISIN]	–	Not Active	–
